Series [1] can be described thus: Thermodynamic aqueous solubility. In kind it is physicochemical.
Series [2] addresses T1, CYP1A2 (Homo sapiens, UniProt P05177).
T1 sequence (P05177 1-516): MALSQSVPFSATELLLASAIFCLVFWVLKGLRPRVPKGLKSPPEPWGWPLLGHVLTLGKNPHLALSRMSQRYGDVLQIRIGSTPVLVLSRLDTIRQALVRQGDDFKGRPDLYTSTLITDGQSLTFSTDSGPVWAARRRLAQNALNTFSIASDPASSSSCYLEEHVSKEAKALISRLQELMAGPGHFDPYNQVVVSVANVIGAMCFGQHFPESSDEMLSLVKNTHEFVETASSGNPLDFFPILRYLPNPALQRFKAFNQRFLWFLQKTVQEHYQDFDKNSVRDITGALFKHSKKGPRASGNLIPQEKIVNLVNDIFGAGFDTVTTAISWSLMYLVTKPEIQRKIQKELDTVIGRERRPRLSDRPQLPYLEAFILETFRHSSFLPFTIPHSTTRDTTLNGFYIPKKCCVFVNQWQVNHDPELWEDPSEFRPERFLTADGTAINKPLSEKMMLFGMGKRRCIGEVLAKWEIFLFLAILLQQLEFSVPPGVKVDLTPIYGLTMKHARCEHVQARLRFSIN
In words: CYP inhibition CYP1A2. In kind it is in vitro ADME.

For series [3], the target named is CYP3A4 (Homo sapiens, UniProt P08684). In words: CYP inhibition CYP3A4. It is filed as in vitro ADME. Conditions: inhibitor class in words.
In series [4] the test system is L. infantum (MHOM/MA(BE)/67/ITMAP263) amastigotes. In words: L. infantum intramacrophage amastigote assay. In kind it is cell-based, Leishmania infantum.
A short description of series [5]: Human liver microsome intrinsic clearance. It is filed as in vitro ADME. Conditions: human, human liver microsomes, pH 7.4, HLM clint. In general terms: Microsomes from liver hold many membrane-bound enzymes, among them those of drug oxidation.
Series [6] deals with T2, CYP2C8 (Homo sapiens, UniProt P10632).
T2 sequence (P10632 1-490): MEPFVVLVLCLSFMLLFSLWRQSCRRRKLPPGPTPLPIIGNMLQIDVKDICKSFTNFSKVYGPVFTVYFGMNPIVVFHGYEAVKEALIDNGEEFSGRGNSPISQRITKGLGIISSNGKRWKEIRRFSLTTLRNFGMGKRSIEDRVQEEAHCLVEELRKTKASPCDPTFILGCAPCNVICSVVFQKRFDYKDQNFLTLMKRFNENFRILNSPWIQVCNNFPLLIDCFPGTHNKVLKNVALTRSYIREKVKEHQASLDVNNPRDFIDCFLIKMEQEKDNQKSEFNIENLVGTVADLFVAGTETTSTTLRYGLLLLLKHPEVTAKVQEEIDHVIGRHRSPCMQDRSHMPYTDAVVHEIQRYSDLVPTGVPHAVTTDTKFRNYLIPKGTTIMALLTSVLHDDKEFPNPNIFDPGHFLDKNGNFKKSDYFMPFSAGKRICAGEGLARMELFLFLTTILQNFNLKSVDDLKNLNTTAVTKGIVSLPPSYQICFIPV
In words: CYP inhibition CYP2C8. In kind it is in vitro ADME.

Series [7] is described as follows: Rat hepatocyte intrinsic clearance. It is filed as in vitro ADME. Conditions: rat, rat hepatocytes.
Series [8] can be described thus: Cytotoxicity toward primary peritoneal mouse macrophages. It is filed as cell-based. The conditions noted are these: Swiss, mouse, primary peritoneal mouse macrophages (PMM), PMM pCC50, primary mouse macrophages; highest in-test concentration 64 μM.
Series [9] addresses CYP2D6 (Homo sapiens, UniProt P10635). In words: CYP inhibition CYP2D6. In kind it is in vitro ADME. The conditions noted are these: inhibitor class in words.
The target in series [10] is CYP2C9 (Homo sapiens, UniProt P11712). In words: CYP inhibition CYP2C9. It is filed as in vitro ADME.
The target in series [11] is CYP2C19 (Homo sapiens, UniProt P33261). As to the kind of experiment: CYP inhibition CYP2C19. In kind it is in vitro ADME.
Series [12] has as its target hERG (Homo sapiens, UniProt Q12809). In words: hERG channel blockage. It is filed as biochemical. Conditions: hERG pIC50. (In general: hERG is a cardiac potassium channel; its block is linked to QT prolongation.)
Series [13] is described as follows: MDCK-wt permeability assay. It is filed as in vitro ADME, canine. Conditions: dog.

Each structure is given as a SMILES string.

CYP2C9, sequence (P11712 whole entry): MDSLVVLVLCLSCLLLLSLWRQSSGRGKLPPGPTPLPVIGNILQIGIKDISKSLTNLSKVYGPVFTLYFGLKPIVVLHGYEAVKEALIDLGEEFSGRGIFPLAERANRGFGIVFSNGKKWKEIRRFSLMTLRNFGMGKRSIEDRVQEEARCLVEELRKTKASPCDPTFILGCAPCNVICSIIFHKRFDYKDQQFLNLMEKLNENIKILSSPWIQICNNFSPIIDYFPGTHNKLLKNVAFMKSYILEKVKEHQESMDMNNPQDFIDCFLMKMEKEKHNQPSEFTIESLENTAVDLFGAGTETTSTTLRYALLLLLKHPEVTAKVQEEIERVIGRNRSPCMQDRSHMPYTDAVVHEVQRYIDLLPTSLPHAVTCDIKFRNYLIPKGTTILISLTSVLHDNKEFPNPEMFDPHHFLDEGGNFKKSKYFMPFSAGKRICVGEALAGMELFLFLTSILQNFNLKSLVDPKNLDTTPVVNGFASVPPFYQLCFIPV
CYP2C19, sequence (P33261 whole entry): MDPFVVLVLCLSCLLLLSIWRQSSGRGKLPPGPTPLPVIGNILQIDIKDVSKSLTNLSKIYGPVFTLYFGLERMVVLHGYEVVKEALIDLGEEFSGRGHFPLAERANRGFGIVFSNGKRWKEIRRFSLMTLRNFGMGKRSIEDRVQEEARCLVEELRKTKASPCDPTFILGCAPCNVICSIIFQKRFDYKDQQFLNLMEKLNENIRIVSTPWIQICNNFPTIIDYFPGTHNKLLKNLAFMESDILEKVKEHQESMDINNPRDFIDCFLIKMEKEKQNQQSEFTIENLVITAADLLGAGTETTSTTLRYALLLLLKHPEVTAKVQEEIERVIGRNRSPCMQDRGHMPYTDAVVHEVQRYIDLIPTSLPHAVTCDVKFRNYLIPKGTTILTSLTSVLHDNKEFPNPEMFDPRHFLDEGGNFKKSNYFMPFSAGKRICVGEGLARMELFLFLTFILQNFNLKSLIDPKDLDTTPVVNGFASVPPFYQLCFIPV
CYP2D6, sequence (P10635 whole entry): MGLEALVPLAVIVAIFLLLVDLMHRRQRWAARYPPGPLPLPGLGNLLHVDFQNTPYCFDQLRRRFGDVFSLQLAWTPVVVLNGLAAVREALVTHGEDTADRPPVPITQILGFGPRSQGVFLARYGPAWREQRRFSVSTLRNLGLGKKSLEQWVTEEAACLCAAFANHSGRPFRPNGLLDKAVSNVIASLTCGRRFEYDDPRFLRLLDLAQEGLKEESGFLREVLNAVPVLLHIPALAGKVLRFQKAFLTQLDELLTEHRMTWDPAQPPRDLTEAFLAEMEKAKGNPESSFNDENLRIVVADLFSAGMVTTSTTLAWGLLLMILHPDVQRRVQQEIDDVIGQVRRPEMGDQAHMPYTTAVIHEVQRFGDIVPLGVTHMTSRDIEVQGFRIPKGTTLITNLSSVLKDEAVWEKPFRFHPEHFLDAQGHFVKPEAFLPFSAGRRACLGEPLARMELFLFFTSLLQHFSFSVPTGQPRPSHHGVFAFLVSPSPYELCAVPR
hERG, sequence (Q12809 whole entry): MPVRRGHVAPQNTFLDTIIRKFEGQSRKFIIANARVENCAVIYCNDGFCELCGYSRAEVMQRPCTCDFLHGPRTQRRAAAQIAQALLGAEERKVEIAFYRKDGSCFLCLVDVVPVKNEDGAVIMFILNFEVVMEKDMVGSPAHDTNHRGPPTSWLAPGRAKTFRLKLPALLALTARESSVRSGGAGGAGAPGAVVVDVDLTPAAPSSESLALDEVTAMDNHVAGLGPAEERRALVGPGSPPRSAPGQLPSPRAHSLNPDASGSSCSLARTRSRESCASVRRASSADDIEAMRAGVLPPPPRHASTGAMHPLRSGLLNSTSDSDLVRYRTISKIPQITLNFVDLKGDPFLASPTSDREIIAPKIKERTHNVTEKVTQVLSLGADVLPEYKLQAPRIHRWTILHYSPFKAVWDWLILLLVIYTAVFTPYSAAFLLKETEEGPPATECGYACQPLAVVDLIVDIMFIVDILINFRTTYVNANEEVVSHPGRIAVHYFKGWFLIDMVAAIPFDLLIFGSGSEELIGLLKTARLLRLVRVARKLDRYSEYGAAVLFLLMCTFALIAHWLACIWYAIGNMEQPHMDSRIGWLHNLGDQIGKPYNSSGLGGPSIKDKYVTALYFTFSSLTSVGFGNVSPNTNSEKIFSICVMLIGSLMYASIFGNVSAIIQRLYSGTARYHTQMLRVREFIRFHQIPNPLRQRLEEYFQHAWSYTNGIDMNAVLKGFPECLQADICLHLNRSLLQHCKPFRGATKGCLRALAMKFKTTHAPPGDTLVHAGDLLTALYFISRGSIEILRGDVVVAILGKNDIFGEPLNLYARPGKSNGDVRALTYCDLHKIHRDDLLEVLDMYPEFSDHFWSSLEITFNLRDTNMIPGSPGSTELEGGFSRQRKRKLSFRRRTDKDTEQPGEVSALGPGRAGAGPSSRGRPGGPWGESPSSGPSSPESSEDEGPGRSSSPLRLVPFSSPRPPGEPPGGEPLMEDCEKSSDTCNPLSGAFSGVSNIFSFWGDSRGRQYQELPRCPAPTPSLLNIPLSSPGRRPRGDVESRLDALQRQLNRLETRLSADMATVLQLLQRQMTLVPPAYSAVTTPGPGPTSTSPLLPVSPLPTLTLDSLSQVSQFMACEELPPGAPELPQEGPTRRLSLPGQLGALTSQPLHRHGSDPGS
CYP3A4, sequence (P08684 whole entry): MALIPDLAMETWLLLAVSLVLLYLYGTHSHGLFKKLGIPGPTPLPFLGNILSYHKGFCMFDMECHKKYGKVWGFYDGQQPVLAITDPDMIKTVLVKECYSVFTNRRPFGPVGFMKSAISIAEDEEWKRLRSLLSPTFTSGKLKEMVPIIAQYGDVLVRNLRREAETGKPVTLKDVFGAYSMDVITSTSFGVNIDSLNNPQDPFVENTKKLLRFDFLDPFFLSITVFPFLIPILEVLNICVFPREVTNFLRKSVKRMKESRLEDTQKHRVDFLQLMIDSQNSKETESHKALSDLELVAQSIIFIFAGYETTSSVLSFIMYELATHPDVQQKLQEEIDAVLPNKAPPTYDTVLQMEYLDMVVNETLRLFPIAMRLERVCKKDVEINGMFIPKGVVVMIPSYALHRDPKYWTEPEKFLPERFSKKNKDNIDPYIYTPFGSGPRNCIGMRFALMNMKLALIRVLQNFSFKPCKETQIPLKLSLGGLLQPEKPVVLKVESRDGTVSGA

In series [1], `Fc1ccc(Nc2c(-c3ccccn3)nc3ccc(C4CC4)cn23)cc1` [Compound 3p, 6-Cyclopropyl-N-(4-fluorophenyl)-2-(pyridin-2-yl)imidazo[1,2-a]pyridin-3-amine] displayed an aq. sol. of 0.7 µM. Moreover, the IC50 in series [2] was 590 nM; in [6] it was 4.9 µM; in [10] it was 760 nM; in series [11] it was 1800 nM; in series [12], 12.6 µM. Also, in series [2] (inhibitor class in words), the “CYP1A2 inhibition, classification” value is “strong inhibitor”. For the same molecule, in series [3], the “CYP3A4 inhibition, classification” value is listed as “moderate inhibition”. The EC50 in [4] (Leishmania infantum, 120 h, read-out: L.inf pEC50 (converted)) is 6.31 µM. For the same molecule, the SI in series [4] (ratio CC50 μM (PMM)/EC50 μM (L.inf)) came to 1. The molecule further showed a microsomal CLint at 3 µM in series [5] of 91.6 µL/min/mg. The “CYP2C8 inhibition, classification” value in series [6] (inhibitor class in words) is reported as “moderate inhibitor”. For the same molecule, the hepatocyte CLint in [7] is 148 µL/min/1e6 cells. The molecule also had a CC50 at 5 days in [8] of 7.94 µM. Further, the “CYP2D6 inhibition, classification” value in series [9] is given as “moderate inhibition”. Further, in [10] (inhibitor class in words), the “CYP2C9 inhibition, classification” value is listed as “strong inhibitor”. Moreover, the “CYP2C19 inhibition, classification” value in series [11] (inhibitor class in words) is “moderate inhibitor”. In series [13], this molecule gave a Papp A→B at 2 h, 10 µM of 16.7 ×10⁻⁶ cm/s.

The term IC50 denotes the point on the concentration scale where inhibition reaches its midpoint. A high value points to lower potency. Usually microsomal CLint stands for the capacity of the preparation to metabolise the compound, expressed as a volume cleared per time. Lower therefore signals greater metabolic stability. Broadly, the hepatocyte CLint is the capacity of the preparation to metabolise the compound, expressed as a volume cleared per time. Higher therefore signals faster metabolism. What is called CC50 is the concentration giving 50% cytotoxicity. Read a high CC50 as better tolerance by the cells. By Papp A→B is commonly meant the apparent permeability from the apical to the basolateral side of a cell layer. A low value points to poor permeation.
